Test results taken from patent publication US10450572B2, “Androgen receptor variant inhibitors and methods of using” (Regents of the University of Minnesota, priority 2016, dated 2019).
“Also recorded” adds a separate entry of the source. {Fluorescein} = fluorescein label

Assays:
AR-FL [1] = experiment: AR subcellular fractionation and western blot; assay type: cell-based, human; details: 22Rv1-undup3 cells; 1 nM, 24 hours; FIG. 8
Method: For AR subcellular fractionation, 22Rv1-undup3 cells were seeded in RPMI medium supplemented with 10% CSS for 24 hours and treated with either ethanol (vehicle) or 1 nM mibolerone (synthetic androgen) for 24 hours. Cells were washed with 1×PBS, harvested in hypotonic buffer, and subjected to subcellular fractionation as described elsewhere (see, e.g., Chan et al., 2012, J. Biol. Chem., 287:19736-49). Lysates in 1× Laemmli buffer were loaded in equal volumes on either 7.5% or 4-15% polyacrylamide gels (Biorad TGX) and electrophoresed at 200v for 30 minutes.
Blots were incubated with antibodies specific to CPSF1 (Bethyl, A301-580, 1:1000), AR (Santa Cruz Santa Cruz Biotechnology N-20, 1:2000), extracellular signal-regulated kinase-2 (ERK-2; Santa Cruz Biotechnology D-2, 1:4000), and AR-V7 (Precision Antibodies, 1:1000). HRP-conjugated goat-anti-mouse (#sc 2005, lot#D1515), and goat-anti-rabbit (#sc 2004, lot#B1315) secondary antibodies were obtained from Santa Cruz and were used at 1:10000 dilutions. Blots were incubated in enhanced chemiluminescence substrate (WesternBright, Advansta #K12045-D50 or SuperSignal West Pico, Thermo #1859674) and exposed to X-ray film for chemiluminescence detection.

AR-V7 mRNA = experiment: specificity test with morpholinos tiling the CE3 PAS: AR-V7 mRNA; assay type: cell-based, human; details: 22Rv1 cells; 10 μM morpholino, 24 hours after transfection; FIG. 19B
Method: (§1) GeneTools' design tool was used to design morpholinos targeting upstream and downstream regions of AR CE3. Sequences were as follows:
(§2) 22Rv1 cells were transfected with 10 μM control and morpholinos tiling upstream (us) and downstream (ds) of the CE3 PAS (us 100, us 50, CE3 pAM, ds 50, ds 150).
(§3) Total RNA from tumor tissue was purified using the Promega Reliaprep Tissue kit according to manufacturer instructions, including the on-column DNAse treatment. RNA was eluted in nuclease free water. Reverse transcription and quantitative PCR were performed as described in Example 2. Data were analyzed using the ΔΔCt method and normalized to actin-2 (internal control).

AR mRNA = experiment: specificity test with morpholinos tiling the CE3 PAS: AR mRNA; assay type: cell-based, human; details: 22Rv1 cells; 10 μM morpholino, 24 hours after transfection; FIG. 19B
Method: as §1, §2, §3

22Rv1 cells = experiment: crystal violet growth assay of 22Rv1 cells; assay type: cell-based, human; details: parental 22Rv1 cells transfected with 10 μM; androgen-deplete conditions; FIG. 11D
Method: (§4) 22Rv1 cells (CRL-2505) were obtained from ATCC (Manassas, Va., USA) and cultured according to ATCC protocol. LNCaP95 cells were cultured in phenol red free RMPI 1640 (Invitrogen) supplemented with 10% fetal bovine serum and 1× penicillin/streptomycin. VCaP cells (ATCC CRL-2876) were cultured in DMEM medium (Invitrogen) supplemented with 10% fetal bovine serum and 1× penicillin/streptomycin. ATCC authenticates human cell lines using short tandem repeat analysis. Cell lines were routinely monitored for mycoplasma infection by regularly evaluating aliquots of supernatants from cells in culture for mycoplasma contamination using a PCR-based method as described elsewhere (see, e.g., Uphoff et al., 2012, J. Biomed. Biotechnol., 2012:267678).
GeneTools' design tool was used to design a 25-mer consisting of the sequence 5′-[…]-3′ (SEQ ID NO:2) targeted to the CE3 PAS (CE3 pAM). As a control, a standard commercially available nontargeting control morpholino was used (GeneTools). […]
(§5) Electroporated 22Rv1 cells and sublines were seeded at 20,000 cells per well in 24 well dishes in RPMI 1640 supplemented with 10% charcoal-stripped FBS. […] Crystal violet staining assays were performed as described elsewhere (see, e.g., Li et al., 2013, Cancer Res., 73:483-9) and absorbance was measured at 560 nm. Significance was assessed by two tailed t-tests in GraphPad.

22Rv1-undup3 cells = experiment: crystal violet growth assay of 22Rv1-undup3 cells; assay type: cell-based, human; details: 22Rv1-undup3 cells transfected with 10 μM, FIG. 11D
Method: as §4
Cell/siRNA mixtures were electroporated in a 4-mm gap-width cuvette (BTX) with a BTX Square Wave Electroporator (22Rv1 and sublines: 350 V, 10 ms pulse, LNCaP95: 305 V, 10 ms pulse). Following a 15-minute recovery, cells were seeded in appropriate culture medium. […]
as §5

full-length AR (AR-FL) = experiment: full-length AR expression in E43 cells; assay type: cell-based; details: E43 cells transfected with CE3 pAM; FIG. 3A
Method: (§6) E43 cells were cultured in RPMI-1640 and supplemented with 10% FBS and 500 μg/mL penicillin/streptomycin. For androgen blockade experiments, E43 cells were cultured in RPMI-1640 supplemented with 10% charcoal stripped FBS and 500 μg/mL penicillin/streptomycin. Transient transfections were performed using a BTX Square Wave electroporator. Transient transfection of E43 cells with the indicated concentration of CE3 pAM were carried out in RPMI-1640 supplemented with 10% FBS, and subsequently plated in appropriate culture medium. When appropriate, E43 cells were treated with 10 μM enzalutamide (MDV-3100, Selleck Chemicals) in indicated cell culture medium. E43 cells in cell culture medium were treated with vivo-CE3 pAM in 1X phosphate buffered saline at the indicated concentrations.

[2] = test system: AR-V2, AR-V5, AR-V7, and AR-V9 mRNA; experiment: AR-V mRNA expression in E43 cells; assay type: cell-based; details: E43 cells transfected with CE3 pAM; FIG. 3B
Method: as §6

[3] = test system: AR-V7, AR-V9 (EX3:CE5), AR-V1 (EX3:CE1), AR-V6 (EX3:CE2a); experiment: AR-V mRNA and protein expression after morpholino transfection (RT-qPCR, western blot); assay type: cell-based, human; details: FIG. 11C
Method: as §4, with “2012:267678). […]” for “2012:267678).”
(§7) RNA was isolated from cells using the Reliaprep RNA Miniprep System (Promega) and purified according to kit manufacturer instructions, including a 30-minute room temperature DNase treatment. […] RNA concentration and integrity were assessed by denaturing gel electrophoresis or by spectrophotometry with a NanoDrop 2000 (ThermoFisher). […]
(§8) Quantitative PCR was performed using Quanta PerfeCTa master mix, 200 nM forward and reverse primers, and 2 μL input cDNA (serially diluted in nuclease free water 1:50 for 18S samples) in 20 μL reactions. […] Cycle thresholds (Ct) were determined using the Biorad CFX manager software. […]

AR-V proteins = experiment: AR-V protein expression in E43 cells (western blot); assay type: cell-based; details: E43 cells transfected with CE3 pAM; FIG. 3A
Method: as §6

E43 cells = experiment: crystal violet growth assay of E43 cells; assay type: cell-based; details: FIG. 3C; for cell growth (crystal violet staining): E43 cells
Method: as §6
20,000 E43 cells transfected with 10 μM CE3 pAM or control morpholino were plated in 24-well dishes in the indicated culture medium and subjected to the indicated drug treatments. Crystal violet assays were performed on cells on days 2, 4, 6, 8, 11, and 14. Briefly, cells were fixed in 1% glutaraldehyde in 1X PBS and stained with 0.5% crystal violet in distilled water. At the end of the timecourse, fixed and stained cells were subjected to treatment with Sorenson's buffer (6.1 ml of 0.1 M disodium citrate, 3.9 ml of 0.1N HCl, and 10 ml of 95% ethanol) to release dye. Absorbance was measured at 560 nm.

AR-FL [4] = experiment: AR-FL expression after morpholino transfection; assay type: cell-based, human; details: FIG. 11C
Method: as §4, with “2012:267678). […]” for “2012:267678).”
as §7, §8

[5] = 22Rv1-undup3 cells transfected with 10 μM
[6] = 22Rv1 cells transfected with 10 μM

Molecule: C[C@@H]1CC2=CC(=O)CC[C@@H]2[C@H]2CC[C@@]3(C)[C@@H](CC[C@]3(C)O)[C@@H]21 [mibolerone]
- nuclear localization of AR-FL (AR-FL [1]): strong nuclear localization; also recorded: localizes to the nucleus

Molecule: CE3 pAM: 25-mer morpholino 5′-GTGTATTAATGGCTTTATTAAGGGA-3′ (SEQ ID NO:2) designed to block the AR CE3 poly A signal (all phosphorodiamidate morpholino (PMO), 3' {Fluorescein}; further chemistry not fully specified)
- AR-V7 mRNA levels (AR-V7 mRNA): reduced
- AR mRNA levels (AR mRNA): increased
- growth (crystal violet) (22Rv1 cells): reduction in growth
- growth (crystal violet) (22Rv1-undup3 cells; androgen-deplete conditions): reduction in growth
- growth (crystal violet) (22Rv1-undup3 cells; androgen-replete conditions (1 nM DHT)): inhibited growth
- expression of full-length AR (AR-FL) (full-length AR (AR-FL)): increase expression
- expression of AR-V2, AR-V5, AR-V7, and AR-V9 mRNA [2]: blocks; also recorded: blocked expression
- mRNA and protein expression of AR-V7, AR-V9, AR-V1, AR-V6 [3, 5]: reduction
- mRNA and protein expression of AR-V7, AR-V9, AR-V1, AR-V6 [3, 6]: reduction
- expression of AR-V proteins (AR-V proteins): blocks; also recorded: dramatically reduced
- reduction in cell growth assessed by crystal violet staining (E43 cells; E43 cells transfected, charcoal stripped serum, plus 10 uM enzalutamide): ~50%
- cell growth (crystal violet staining) (E43 cells; 10 μM morpholino transfected, maximum androgen blockade castration+enzalutamide): blocks growth; also recorded: inhibited cell growth
- cell growth (crystal violet staining) (E43 cells; transfected, androgenic conditions): not under androgenic conditions
- expression of AR-FL (AR-FL [4]; [5]): increase
- expression of AR-FL (AR-FL [4]; [6]): increase
